Data on two compounds can be found in patent US20100331363A1, “TREATMENT OF MITOCHONDRIAL DISORDERS USING A FARNESYL TRANSFERASE INHIBITOR” (Link Medicine Corporation, priority 2008, published 2010).

Data set [1] can be described thus: 3T3H-ras (61 L) xenograft tumor-bearing athymic mouse, continuous infusion 7 days, PK/PD. It counts as in vivo. The following applies: intravenous, calculated from minimal continuous serum level of 100 ng/ml, read-out: minimal efficacious AUC. From the text:
FIG. 3 provides pharmacokinetic and pharmacodynamic data for continuously infused LNK-754 (CP-609,754) in a 3T3H-ras (61 L) xenograft tumor-bearing athymic mouse (7 day treatment). […] From Pfizer Investigational New Drug Application for CP-609,754, Section 8, Pharmacology and Toxicology, dated Nov. 19, 1999. See also Moulder et al., Clinical Cancer Research 10:7127-7135, Nov. 1, 2004.
Further data supporting the stark difference in dosing levels for efficacy in oncology and synucleinopathies is shown in FIG. 3 and Table 2A below. In the experiment shown in FIG. 3, a xenograft model is once again used, but there is continuous infusion of LNK-754-TS, and thus a steady state concentration of drug in the plasma and tissues.
In the experimental data represented in Table 2A, a different method of drug delivery is used (oral) than in the experiment represented in FIG. 3. The best way to compare the relative coverage of the two delivery methods (oral and continuous infusion) is by comparing area-under-the-curve (AUC) values. We can compare the calculated AUC values for the continuous infusion oncology study presented in FIG. 3 and the AUC values associated with the synuclein model doses in the table. […] The AUCs of orally dosed LNK-754-TS at 0.9 mg/kg and at 0.09 mg/kg QD are 34.6 and […], respectively.

A further data set has as its system LC3-II protein. The data set is described as follows: LC3-II protein level in SH-SY5Y cells with or without bafilomycin A1. It counts as cell-based, human. The procedure: The observed increase in LC3-positive autophagosomes could result, in principle, from either an increased flux through the autophagy pathway or decreased autophagosome degradation (Pankiv, S., et al. J Biol Chem 282, 24131-24145 (2007); Kamada, Y., et al. J Cell Biol 150, 1507-1513 (2000)). […] In order to ascertain an increase in autophagic flux, cells were co-treated with LNK-754-TS and an inhibitor of autophagosome-lysosome fusion, bafilomycin A1 (10 nM). Bafilomycin treatment alone caused a 100% increase in the amount of LC3-II, consistent with the fact that it inhibits autophagosome degradation (FIG. 8c).

Another data set concerns aged non-transgenic rats. The data set is described as follows: Morris water maze in aged non-transgenic rats. It counts as in vivo, rat. The following applies: aged rats 22 months, 0.3 mg/kg and 0.9 mg/kg once every 24 hours. The text has this: Morris water maze (MWM) analysis of cognitive performance: In APP/PS1 transgenic animals, swimming behavior in a Morris Water Maze was videotaped and analyzed (Ethovision, Noldus, Wageningen, Netherlands). For mice, a place navigation test was used to locate the hidden platform in five blocks of three trials over three consecutive days. Each trial consists of a forced swim test of maximum 120 seconds, followed by 60 seconds of rest. The time each mouse needed for location of the platform was measured. For rats, a cued learning phase was first conducted, consisting of 3 trials per day for 5 days, using a visible platform of varying location. Each trial consisted of a forced swim test of maximum 60 seconds, followed by 10 minutes of rest. The time and path length each rat needed to locate the platform was measured.
In order to rule out the possibility that the rapid observed improvement in cognition described above arose from an alternative, transgene-independent mechanism, aged non-transgenic rats (22 months old) were treated with LNK-754-TS (0.3 mg/kg and 0.9 mg/kg, once every 24 hours) and their cognitive performance was measured by MWM and compared to that of younger rats (3 months old) of the same strain.

The test system of data set [2] is APP processing and secretion. The data set can be described thus: APP processing and secretion in a cell culture model of pathogenic Aβ production. It counts as cell-based. The text has this: Finally, it is important to note that LNK-754-TS had no effect on APP processing and secretion in a cell culture model of pathogenic Aβ production (Selkoe, D. J., et al. Ann N Y Acad Sci 777, 57-64 (1996)).

For data set [3], the system named is 3T3H-ras (61 L) xenograft. The following applies: cited from earlier work.
A further data set has as its target GGTase (Homo sapiens, UniProt P49354+P53609). The data set can be described thus: Table 5A in vitro GGTI (H-Ras, K-Ras CAAX mutant). The data set is classed as biochemical. From the text:
The selectivity of LNK-754 for FTase over GGTAse is shown below in Table 5A.

The next data set deals with isolated islet cells. The data set is described as follows: Insulin secretion assay, isolated islet cells. The data set is classed as cell-based. The following applies: for increase in insulin stimulation: 10 nM, high glucose conditions (15 mM). On the procedure:
One example of such an assay is as follows: prior to glucose-induced insulin secretion, cells were cultured for two hours in RPMI containing 3 mM glucose without serum. Cells were then washed and preincubated for 30 min in modified Krebs-Ringer bicarbonate buffer (KRB) containing (in mM): 119 NaCl, 4.6 KCl, 5 NaHCO3, 2 CaCl2, 1 MgSO4, 0.15 Na2HPO4, 0.4 KH2PO4, 20 HEPES, 2 glucose, 0.05% BSA, pH 7.4. This was followed by 30 min incubation in media containing either 3 mM glucose (to simulate low glucose conditions) or 15 mM glucose (to simulate high glucose conditions). Media are treated with varying concentrations of compound (1 nM and 10 nM). Media was collected and stored at −20° C. for insulin measurement. Insulin was measured by ELISA.
In both graphs, insulin is measured in (pictogram/ml). […] The amount of insulin secretion stimulated is dependent on the concentration of compound, incubation time, and cell-type. […] This distinguishes the effect of LNK-754 from sulfonyl urea compounds, the current standard oral anti-diabetic drug which increases insulin secretion under all conditions (not desired).

In another data set the test system is INS-1 cells. The data set can be described thus: Whole cell mitochondrial fusion assay (paGFP) in INS-1 cells. It counts as cell-based. The following applies: 1 nM, 48 hours. The text has this: Mitochondrial dynamics is necessary for the maintenance of bioenergetic functions and maintenance of homogenous population of mitochondria. Mutations in Mfn2 and Opal have been implicated in neuropathies. A whole cell fusion assay was used to evaluate the effect of LNK-754 on the enhancement of mitochondrial fusion and fission events. Photo-activateable GFP is used to label and follow an individual mitochondrion. Photo-activatable GFP becomes fluorescent only after absorbing UV light. Mitochondria undergo frequent fusion and fission. During fusion, the labeled mitochondrion passes fluorescent GFP to a neighboring unlabeled mitochondrion (Molina and Shirihai, […], 2009). […] The following assay protocol was followed: paGFP expression was carried out using adenoviral transduction if INS-1 cells. The cells were treated for 48 hours with 1 nM LNK-754. Mitochondria were labeled with TMRE to facilitate tagging. UV pulse was delivered by two-photon laser. Z-stacks of individual cells were taken every 5 minutes for 30 minutes. Three separate runs were performed over 3 weeks at imaging facilities.

In a further data set the test system is human α-synuclein. The data set can be described thus: Masliah D-line α-synuclein transgenic mouse, α-synuclein immunoreactivity and ELISA. The data set is classed as in vivo. The following applies: 0.09 mg/kg, second trial (FIG. 2B). On the technique in general: ELISA stands for enzyme-linked immunosorbent assay.

The structures appear in SMILES notation. “Also recorded” adds a separate entry of the source. Like-named read-outs stand apart in the source and are kept apart here.

By AUC is commonly meant concentration integrated over time. For the compound `C#Cc1cccc(-c2cc(=O)n(C)c3ccc([C@](O)(c4ccc(Cl)cc4)c4cncn4C)cc23)c1` [LNK-754-TS, (R)-6-[(4-chlorophenyl)-hydroxyl-(1-methyl-1-H-imidazol-5-yl)-methyl]-4-(3-ethynylphenyl)-1-methyl-2-(1H)-quinonlinone (2S, 3S)-dihydroxybutanedioate], in [1], the AUC was approximately 2400 ng·h/mL. In the data set on LC3-II protein (100 nM in combination with bafilomycin A1 10 nM), the “additional increase in LC3-II over bafilomycin alone” value was 75%. For the same compound, the “accumulation of LC3-I or LC3-II protein” value in the data set with LC3-II protein (compound alone, without bafilomycin) is given as “did not cause accumulation”. In addition, the “cognitive performance, Morris water maze (place learning, probe tests)” value with aged non-transgenic rats is “no significant cognitive improvement”. In addition, the “APP processing and secretion” value in data set [2] is “no effect”. Also, the “efficacy against tumor growth” value in data set [3] (25 mg/kg, lowest dose tested) is “borderline efficacy”. For the same compound, the “dose required for suppression of tumor growth” value in data set [3] (10 days BID, 3T3H-ras (61 L) xenograft athymic mouse) is “at least 25 mg per kg”.

Consider `C#Cc1cccc(-c2cc(=O)n(C)c3ccc([C@](O)(c4ccc(Cl)cc4)c4cncn4C)cc23)c1` [LNK-754, (R)-6-[(4-chlorophenyl)-hydroxyl-(1-methyl-1-H-imidazol-5-yl)-methyl]-4-(3-ethynylphenyl)-1-methyl-2-(1H)-quinonlinone], for which the IC50 is 552 nM on GGTase (read-out: H-Ras CAAX Mutant GGTI) and 2890 nM on GGTase (read-out: K-Ras CAAX Mutant GGTI). The entries for the “increase in insulin stimulation” value in the data set with isolated islet cells (2.5 days of incubation) and with isolated islet cells (3 days of incubation) were approximately 75% and approximately 55%, respectively. Also, in the data set with isolated islet cells (basal glucose (3 nM)), the “insulin secretion under basal glucose conditions” value is “not under basal glucose conditions; also recorded: does not affect basal insulin secretion”. In the data set on INS-1 cells, the “mitochondrial dynamics (fusion and fission)” value is given as “promotes mitochondrial dynamics”. The “number of α-synuclein positive neurons” value in the data set on human α-synuclein is reported as “significantly lowered”.
